Reference: PMC4747952, “Development of TASP0410457 (TASP457), a novel dihydroquinolinone derivative as a PET radioligand for central histamine H3 receptors” (EJNMMI Research, 2016)

How the values were obtained:
[1] = test system: H3Rs; experiment: PET in anesthetized rhesus monkeys with arterial blood sampling; format: in vivo, rhesus monkey; conditions: for V T, Logan graphical analysis, Scan duration 60 min / V T, Logan graphical analysis, Scan duration 70 min / V T, Logan graphical analysis, Scan duration 80 min / V T, Logan graphical analysis, Scan duration 90 min / V T, One-tissue compartment model, Scan duration 90 min: Mean ± S.D., n = 3
Procedure: For a detailed pharmacokinetic PET study using [^11C]TASP0410457 with arterial blood sampling, three male rhesus monkeys weighing 5–7 kg were scanned with the SHR-7700 PET camera. The monkeys were initially anesthetized with an intramuscular injection of ketamine (10 mg/kg), intubated, and subsequently kept anesthetized with 1–2 % isoflurane. Electrocardiogram and blood oxygen saturation levels were monitored, and body temperature was maintained by a heating pad throughout the experiment. Arterial blood (1–2.5 mL) was collected from the saphenous artery at 10, 20, 30, 40, 50, 60, and 90 s and at 2, 3, 4, 5, 10, 15, 30, 60, and 90 min after the intravenous injection of [^11C]TASP0410457 (injected radioactivity, 159 ± 30 MBq; mass dose, 1.2 ± 0.3 μg; mean ± S.D., n = 3).
The arterial blood was centrifuged at 20,000×g for 3 min at 4 °C to separate the plasma. Radioactivity in total blood and plasma was determined using a 1480 WIZARD gamma counter (PerkinElmer), and was decay-corrected to the injection time. Arterial plasma collected at 1, 5, 15, 30, 60, and 90 min was used to analyze radioactive metabolites of [^11C]TASP0410457. Two hundred microliters of plasma was mixed with 200 μL of ice-cold acetonitrile, and the mixtures were centrifuged at 20,000×g for 3 min at 4 °C. Fifty to […] of the resultant supernatants were separated using HPLC (JASCO, Tokyo, Japan) on an Atlantis T3 column (4.6 × 50 mm, Waters, Milford, MA) with a mobile phase consisting of 10 mM of ammonium acetate/acetonitrile (68:32) at a flow rate of 1 mL/min. The fraction of unmetabolized [^11C]TASP0410457 was determined by measuring the areas of the HPLC peaks corresponding to [^11C]TASP0410457 and its radiometabolites.
(§1) Emission scan images were reconstructed using a 4.0-mm Colsher filter. ROIs were placed on the anterior cingulate cortex, striatum, thalamus, hippocampus, cerebellum, frontal cortex, temporal cortex, occipital cortex, and pons-medulla using PMOD software, with reference to an MRI template as described previously. Tissue TACs were generated as in the rat PET image analysis.
For PET study in anesthetized monkeys, metabolite-corrected plasma TACs were used as arterial input functions. The regional total volume of distribution (VT) was estimated by Logan’s graphical plot and one-tissue compartment model using PMOD software.

[2] = molecular target: T1, H3Rs (Macaca mulatta, UniProt Q865E1); experiment: PET in conscious rhesus monkey; format: in vivo, rhesus monkey (Macaca mulatta)
T1 construct: from tissue; host or cells: brain of living rhesus monkeys
T1 sequence (Q865E1 1-445): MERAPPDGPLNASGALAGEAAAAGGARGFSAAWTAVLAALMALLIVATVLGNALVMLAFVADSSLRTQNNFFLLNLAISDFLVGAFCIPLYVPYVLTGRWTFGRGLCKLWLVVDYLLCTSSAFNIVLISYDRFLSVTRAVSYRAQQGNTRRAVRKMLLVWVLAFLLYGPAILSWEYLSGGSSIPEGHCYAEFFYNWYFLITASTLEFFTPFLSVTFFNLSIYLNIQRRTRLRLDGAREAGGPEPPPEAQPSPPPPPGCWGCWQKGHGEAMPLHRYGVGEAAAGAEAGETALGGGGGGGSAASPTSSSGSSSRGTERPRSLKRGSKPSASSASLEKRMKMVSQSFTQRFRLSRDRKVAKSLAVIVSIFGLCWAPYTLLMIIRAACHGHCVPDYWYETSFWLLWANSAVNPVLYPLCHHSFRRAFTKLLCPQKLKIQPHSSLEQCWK
Procedure: A male rhesus monkey (Macaca mulatta, weighing 6–7 kg) was used for a comparative PET analysis of [^11C]TASP0410457 and [^11C]TASP0434988. PET scans were performed using a high-resolution SHR-7700 animal PET camera (Hamamatsu Photonics, Hamamatsu, Japan). Following transmission scans for attenuation correction using a ^68Ge-^68Ga point source, emission scans were performed on a conscious monkey as described previously, in 3D acquisition mode (frames: 10 s × 12, 30 s × 6, 1 min × 5, 2 min × 5 and 5 min × 14) for 90 min after the intravenous injection of [^11C]TASP0410457 (169–176 MBq) or [^11C]TASP0434988 (173–188 MBq). Briefly, the monkey was immobilized by joining the acrylic cap on the monkey head with the fixation device during PET scans. To assess a homologous competition for the target binding sites, unlabeled TASP0410457 or TASP0434988 was injected intravenously at a dose of 1 mg/kg at 30 s before injection of the corresponding radioligand.
as §1

[3] = design: method as in K. Kawamura, personal communication, 2015; conditions: mice; 30 min after intravenous injection; pilot assays; ref K. Kawamura, personal communication, 2015; cited from earlier work
[4] = Anterior cingulate cortex, monkey brain

What does the source list for `[11CH3]Oc1ccc(N2C(=O)CCc3cc(OC4CCN(C5CCC5)CC4)ccc32)cn1` [[^11C]TASP0410457]?
V T, Logan graphical analysis, Scan duration 60 min [1, 4]: 18.4 ± 2.7 mL/cm^3; V T, Logan graphical analysis, Scan duration 70 min [1, 4]: 18.6 ± 2.8 mL/cm^3; V T, Logan graphical analysis, Scan duration 80 min [1, 4]: 19.1 ± 3.2 mL/cm^3; V T, Logan graphical analysis, Scan duration 90 min [1, 4]: 19.5 ± 3.4 mL/cm^3; V T, One-tissue compartment model, Scan duration 90 min [1, 4]: 20.3 ± 3.3 mL/cm^3; V T, Logan graphical analysis, Scan duration 60 min ([1]; Cerebellum, monkey brain): 12.1 ± 1.2 mL/cm^3; V T, Logan graphical analysis, Scan duration 70 min ([1]; Cerebellum, monkey brain): 12.4 ± 1.3 mL/cm^3; V T, Logan graphical analysis, Scan duration 80 min ([1]; Cerebellum, monkey brain): 12.7 ± 1.5 mL/cm^3; V T, Logan graphical analysis, Scan duration 90 min ([1]; Cerebellum, monkey brain): 13.0 ± 1.7 mL/cm^3; V T, One-tissue compartment model, Scan duration 90 min ([1]; Cerebellum, monkey brain): 12.8 ± 1.7 mL/cm^3; V T, Logan graphical analysis, Scan duration 60 min ([1]; Frontal cortex, monkey brain): 12.3 ± 1.6 mL/cm^3; V T, Logan graphical analysis, Scan duration 70 min ([1]; Frontal cortex, monkey brain): 12.5 ± 1.7 mL/cm^3; V T, Logan graphical analysis, Scan duration 80 min ([1]; Frontal cortex, monkey brain): 12.8 ± 1.8 mL/cm^3; V T, Logan graphical analysis, Scan duration 90 min ([1]; Frontal cortex, monkey brain): 13.0 ± 2.0 mL/cm^3; V T, One-tissue compartment model, Scan duration 90 min ([1]; Frontal cortex, monkey brain): 13.4 ± 1.8 mL/cm^3; V T, Logan graphical analysis, Scan duration 60 min ([1]; Hippocampus, monkey brain): 13.0 ± 1.0 mL/cm^3; V T, Logan graphical analysis, Scan duration 70 min ([1]; Hippocampus, monkey brain): 13.2 ± 1.0 mL/cm^3; V T, Logan graphical analysis, Scan duration 80 min ([1]; Hippocampus, monkey brain): 13.6 ± 1.2 mL/cm^3; V T, Logan graphical analysis, Scan duration 90 min ([1]; Hippocampus, monkey brain): 13.9 ± 1.4 mL/cm^3; V T, One-tissue compartment model, Scan duration 90 min ([1]; Hippocampus, monkey brain): 13.9 ± 1.3 mL/cm^3; V T, Logan graphical analysis, Scan duration 60 min ([1]; Occipital cortex, monkey brain): 11.7 ± 1.6 mL/cm^3; V T, Logan graphical analysis, Scan duration 70 min ([1]; Occipital cortex, monkey brain): 11.8 ± 1.6 mL/cm^3; V T, Logan graphical analysis, Scan duration 80 min ([1]; Occipital cortex, monkey brain): 12.0 ± 1.8 mL/cm^3; V T, Logan graphical analysis, Scan duration 90 min ([1]; Occipital cortex, monkey brain): 12.1 ± 1.9 mL/cm^3; V T, One-tissue compartment model, Scan duration 90 min ([1]; Occipital cortex, monkey brain): 12.7 ± 2.0 mL/cm^3; V T, Logan graphical analysis, Scan duration 60 min ([1]; Pons-medulla, monkey brain): 8.5 ± 0.6 mL/cm^3; V T, Logan graphical analysis, Scan duration 70 min ([1]; Pons-medulla, monkey brain): 8.6 ± 0.7 mL/cm^3; V T, Logan graphical analysis, Scan duration 80 min ([1]; Pons-medulla, monkey brain): 8.8 ± 0.7 mL/cm^3; V T, Logan graphical analysis, Scan duration 90 min ([1]; Pons-medulla, monkey brain): 9.1 ± 0.9 mL/cm^3; V T, One-tissue compartment model, Scan duration 90 min ([1]; Pons-medulla, monkey brain): 8.8 ± 0.9 mL/cm^3; V T, Logan graphical analysis, Scan duration 60 min ([1]; Striatum, monkey brain): 21.2 ± 3.0 mL/cm^3; V T, Logan graphical analysis, Scan duration 70 min ([1]; Striatum, monkey brain): 21.5 ± 3.0 mL/cm^3; V T, Logan graphical analysis, Scan duration 80 min ([1]; Striatum, monkey brain): 21.9 ± 3.3 mL/cm^3; V T, Logan graphical analysis, Scan duration 90 min ([1]; Striatum, monkey brain): 22.6 ± 3.8 mL/cm^3; V T, One-tissue compartment model, Scan duration 90 min ([1]; Striatum, monkey brain): 23.2 ± 3.6 mL/cm^3; V T, Logan graphical analysis, Scan duration 60 min ([1]; Temporal cortex, monkey brain): 12.3 ± 1.6 mL/cm^3; V T, Logan graphical analysis, Scan duration 70 min ([1]; Temporal cortex, monkey brain): 12.4 ± 1.7 mL/cm^3; V T, Logan graphical analysis, Scan duration 80 min ([1]; Temporal cortex, monkey brain): 12.5 ± 1.8 mL/cm^3; V T, Logan graphical analysis, Scan duration 90 min ([1]; Temporal cortex, monkey brain): 12.9 ± 2.1 mL/cm^3; V T, One-tissue compartment model, Scan duration 90 min ([1]; Temporal cortex, monkey brain): 13.3 ± 2.1 mL/cm^3; V T, Logan graphical analysis, Scan duration 60 min ([1]; Thalamus, monkey brain): 15.1 ± 1.7 mL/cm^3; V T, Logan graphical analysis, Scan duration 70 min ([1]; Thalamus, monkey brain): 15.4 ± 1.9 mL/cm^3; V T, Logan graphical analysis, Scan duration 80 min ([1]; Thalamus, monkey brain): 15.6 ± 1.9 mL/cm^3; V T, Logan graphical analysis, Scan duration 90 min ([1]; Thalamus, monkey brain): 16.0 ± 2.1 mL/cm^3; V T, One-tissue compartment model, Scan duration 90 min ([1]; Thalamus, monkey brain): 16.1 ± 1.8 mL/cm^3; time of peak radioligand retention in the striatum ([1]; anesthetized monkeys): around 30 min; time of plasma radioactivity peak ([1]; anesthetized monkeys, arterial plasma): approximately 1 min; peak SUV in the striatum ([1]; anesthetized monkeys, mean ± S.D.): 5.0 ± 0.8; striatal VT ([1]; monkey): exceeded 20 mL/cm^3; change of VT values when scan endpoint changed between 90 and 60 min ([1]; monkey brain, Logan's graphical analysis, relative to values for 90 min): ≤ 7%; fraction of unmetabolized radioligand of total plasma radioactivity ([1]; monkey plasma at 90 min): 34%; peak SUV in the striatum ([2]; another monkey in a conscious condition (additional PET study)): 3.0; time of peak brain uptake after the injection ([2]; conscious monkey PET): ≤ 30 min; peak SUV in the striatum ([2]; first conscious monkey): 3.4; metabolite share of radioactivity in the brain [3]: approximately 50%
